System: human visceral preadipocytes
Experiment: in vitro
Method: Human visceral preadipocytes were seeded in 96-well white clear bottom plates at 10,000 cells per well in 100 μl pre-adipocyte medium and incubated overnight at 37° C. 5% CO2. On the following day, adipogenic differentiation was induced by addition of 100 μl/well differentiation medium and incubation continued for 5 days. Adipogenic differentiation was verified by microscopic evaluation, addition of adipored reagents and fluorescent measurement at Ex485 nm/Em572 nm. […] Staurosporine (1 μM) and 0.2% DMSO were used as controls. Plates were incubated at 37° C. 5% CO2 for 2, 6 and 24 hours. Following incubation, cytotoxicity was measured using Cell Titer Glo 2.0 (Promega).
Test Item RZL-12 (1-300 μM) was prepared on the day of the testing as 150 mM stock solutions in DMSO. The 150 mM represents a 500×stock of the highest desired tested concentration. The 150 mM stock solution was first serially diluted in DMSO to acquire 500×stock solutions for each of the RZL-012 concentrations. The 500×stock solutions were then diluted 1:25 in medium to acquire 20×intermediate stock solutions. Finally, the 20×intermediate stock solutions were further diluted 1:20 in the assay (on the plate) that included seeded cells.
The 600 μM represents a 20× stock of the highest desired tested concentration. […] Finally, the 20×intermediate stock solutions were further diluted 1:20 in the assay plate that included seeded cells.
Human visceral pre-adipocytes (HPrAD-vis): HPrAD-vis cells (Lonza cat #PT-5005) were thawed at 37° C. and transferred into 50 ml tubes containing pre-adipocytes PGM-2 growth medium (PBM-2, 10% FBS, 1-glutamine, GA-1000). Cells were centrifuged at 300 g for 10 minutes, the supernatant was removed (Leaving about 1 ml of wash medium for not disrupting the cells) and 2 ml fresh PGM-2 medium was added. After resuspension, cells were counted and seeded in T-75 and T25 flasks at a density of 9,000 cells/cm^2 ([…], 225,000 cells/T25 flask). Medium was changed every 2-3 days until reached confluence of 70%.
Cells were sub-cultured only once, as soon as they reached 70% confluence. For this purpose, the culture medium of each flask was removed and cells were washed once with 5 ml PBS. The flask was shaken to ensure that the entire surface was covered and the PBS was removed. Then, 3 ml/T75 flask or 1 ml/T25 flask of fresh dedicated Trypsin/EDTA solution (from Lonza) was added and the flasks were incubated for 3-4 minutes at RT until ˜90% cells were detached. The Trypsin/EDTA solution was then neutralized by addition of 6 ml/T75 flask or 3 ml/T25 flask of full PGM-2 growth medium. Cells were collected in 50 ml tubes and centrifuged 10 minutes at 300 g. The supernatant was removed and the cells were resuspended in 3 ml fresh medium. Cells were then counted using a haemacytometer slide after being diluted 1:2 in trypan blue (SIGMA). For sub-culturing, cells were seeded in new T75 flasks at a density of 9,000 cells/cm^2 containing 15 ml fresh growth medium. Alternatively, the cells were seeded in 96-well culture plates at a density of 10,000 cells/well for the cell treatments.
HPrAD-vis cells: HPrAD-vis passaged once were seeded in 96-well plates as described above (10000cells/well in 100 μl medium) and allowed to settle overnight at 37° C., 5% CO2. Following day, adipogenic differentiation was induced by addition of 100 μl/well differentiation medium and incubated for 5 days. Adipogenic differentiation was verified by microscopic evaluation, addition of adipored reagents and fluorescent measurement at Ex485 nm/Em572 nm. In the morning of day 6, test and reference items were prepared as described above. Cells' medium was replaced with 90 μl fresh differentiation medium. […] Staurosporine (1 μM) and 0.2% DMSO were used as controls. Plates were incubated at 37° C. 5% CO2 for 2, 6 and 24 hours. Following incubation, cell viability was determined using the CellTiter-Gg® viability reagent (Promega) with reading of plates for luminescence. […]

C[N+](C)(C)CCCCCn1c2ccc(Br)cc2c2cc(Br)ccc21.[Cl-] [RZL-012, 5-(3,6-dibromo-9H-carbazol-9-yl)-N,N,N-trimethylpentan-1-aminium chloride]
Average RZL-012 and collagenase induced cell death (% vs untreated cells) (RZL12 10 μM, Collagenase 0, 2 h of incubation): 10.4%
Average RZL-012 and collagenase induced cell death (% vs untreated cells) (RZL12 10 μM, Collagenase 0, 24 h of incubation): 12.80%
Average RZL-012 and collagenase induced cell death (% vs untreated cells) (RZL12 10 μM, Collagenase 0.1 μM, 2 h of incubation): 4.9%
Average RZL-012 and collagenase induced cell death (% vs untreated cells) (RZL12 10 μM, Collagenase 0.1 μM, 24 h of incubation): 9.43%
Average RZL-012 and collagenase induced cell death (% vs untreated cells) (RZL12 10 μM, Collagenase 0.3 μM, 2 h of incubation): 5.0%
Average RZL-012 and collagenase induced cell death (% vs untreated cells) (RZL12 10 μM, Collagenase 0.3 μM, 24 h of incubation): 5.50%
Average RZL-012 and collagenase induced cell death (% vs untreated cells) (RZL12 10 μM, Collagenase 1 μM, 2 h of incubation): 7.8%
Average RZL-012 and collagenase induced cell death (% vs untreated cells) (RZL12 10 μM, Collagenase 1 μM, 24 h of incubation): 16.08%
Average RZL-012 and collagenase induced cell death (% vs untreated cells) (RZL12 10 μM, Collagenase 3 μM, 2 h of incubation): 17.7%
Average RZL-012 and collagenase induced cell death (% vs untreated cells) (RZL12 10 μM, Collagenase 3 μM, 24 h of incubation): 33.99%
Average RZL-012 and collagenase induced cell death (% vs untreated cells) (RZL12 10 μM, Collagenase 10 μM, 2 h of incubation): 22.3%
Average RZL-012 and collagenase induced cell death (% vs untreated cells) (RZL12 10 μM, Collagenase 10 μM, 24 h of incubation): 65.12%
Average RZL-012 and collagenase induced cell death (% vs untreated cells) (RZL12 10 μM, Collagenase 30 μM, 2 h of incubation): 45.0%
Average RZL-012 and collagenase induced cell death (% vs untreated cells) (RZL12 10 μM, Collagenase 30 μM, 24 h of incubation): 80.04%
Average RZL-012 and collagenase induced cell death (% vs untreated cells) (RZL12 30 μM, Collagenase 0, 2 h of incubation): 50.4%
Average RZL-012 and collagenase induced cell death (% vs untreated cells) (RZL12 30 μM, Collagenase 0, 24 h of incubation): 72.72%
Average RZL-012 and collagenase induced cell death (% vs untreated cells) (RZL12 30 μM, Collagenase 0.1 μM, 2 h of incubation): 43.8%
Average RZL-012 and collagenase induced cell death (% vs untreated cells) (RZL12 30 μM, Collagenase 0.1 μM, 24 h of incubation): 28.35%
Average RZL-012 and collagenase induced cell death (% vs untreated cells) (RZL12 30 μM, Collagenase 0.3 μM, 2 h of incubation): 35.0%
Average RZL-012 and collagenase induced cell death (% vs untreated cells) (RZL12 30 μM, Collagenase 0.3 μM, 24 h of incubation): 23.76%
Average RZL-012 and collagenase induced cell death (% vs untreated cells) (RZL12 30 μM, Collagenase 1 μM, 2 h of incubation): 45.8%
Average RZL-012 and collagenase induced cell death (% vs untreated cells) (RZL12 30 μM, Collagenase 1 μM, 24 h of incubation): 31.37%
Average RZL-012 and collagenase induced cell death (% vs untreated cells) (RZL12 30 μM, Collagenase 3 μM, 2 h of incubation): 49.7%
Average RZL-012 and collagenase induced cell death (% vs untreated cells) (RZL12 30 μM, Collagenase 3 μM, 24 h of incubation): 79.97%
Average RZL-012 and collagenase induced cell death (% vs untreated cells) (RZL12 30 μM, Collagenase 10 μM, 2 h of incubation): 33.2%
Average RZL-012 and collagenase induced cell death (% vs untreated cells) (RZL12 30 μM, Collagenase 10 μM, 24 h of incubation): 83.68%
Average RZL-012 and collagenase induced cell death (% vs untreated cells) (RZL12 30 μM, Collagenase 30 μM, 2 h of incubation): 46.0%
Average RZL-012 and collagenase induced cell death (% vs untreated cells) (RZL12 30 μM, Collagenase 30 μM, 24 h of incubation): 90.00%
Average RZL-012 and collagenase induced cell death (% vs untreated cells) (RZL12 100 μM, Collagenase 0, 2 h of incubation): 99.7%
Average RZL-012 and collagenase induced cell death (% vs untreated cells) (RZL12 100 μM, Collagenase 0, 24 h of incubation): 99.89%
Average RZL-012 and collagenase induced cell death (% vs untreated cells) (RZL12 100 μM, Collagenase 0.1 μM, 2 h of incubation): 99.5%
Average RZL-012 and collagenase induced cell death (% vs untreated cells) (RZL12 100 μM, Collagenase 0.1 μM, 24 h of incubation): 99.66%
Average RZL-012 and collagenase induced cell death (% vs untreated cells) (RZL12 100 μM, Collagenase 0.3 μM, 2 h of incubation): 99.3%
Average RZL-012 and collagenase induced cell death (% vs untreated cells) (RZL12 100 μM, Collagenase 0.3 μM, 24 h of incubation): 99.60%
Average RZL-012 and collagenase induced cell death (% vs untreated cells) (RZL12 100 μM, Collagenase 1 μM, 2 h of incubation): 98.9%
Average RZL-012 and collagenase induced cell death (% vs untreated cells) (RZL12 100 μM, Collagenase 1 μM, 24 h of incubation): 99.65%
Average RZL-012 and collagenase induced cell death (% vs untreated cells) (RZL12 100 μM, Collagenase 3 μM, 2 h of incubation): 97.4%
Average RZL-012 and collagenase induced cell death (% vs untreated cells) (RZL12 100 μM, Collagenase 3 μM, 24 h of incubation): 99.89%
Average RZL-012 and collagenase induced cell death (% vs untreated cells) (RZL12 100 μM, Collagenase 10 μM, 2 h of incubation): 72.4%
Average RZL-012 and collagenase induced cell death (% vs untreated cells) (RZL12 100 μM, Collagenase 10 μM, 24 h of incubation): 99.92%
Average RZL-012 and collagenase induced cell death (% vs untreated cells) (RZL12 100 μM, Collagenase 30 μM, 2 h of incubation): 76.4%
Average RZL-012 and collagenase induced cell death (% vs untreated cells) (RZL12 100 μM, Collagenase 30 μM, 24 h of incubation): 99.99%
Average RZL-012 and collagenase induced cell death (% vs untreated cells) (RZL12 300 μM, Collagenase 0, 2 h of incubation): 99.9%
Average RZL-012 and collagenase induced cell death (% vs untreated cells) (RZL12 300 μM, Collagenase 0, 24 h of incubation): 100.00%
Average RZL-012 and collagenase induced cell death (% vs untreated cells) (RZL12 300 μM, Collagenase 0.1 μM, 2 h of incubation): 99.6%
Average RZL-012 and collagenase induced cell death (% vs untreated cells) (RZL12 300 μM, Collagenase 0.1 μM, 24 h of incubation): 99.67%
Average RZL-012 and collagenase induced cell death (% vs untreated cells) (RZL12 300 μM, Collagenase 0.3 μM, 2 h of incubation): 99.6%
Average RZL-012 and collagenase induced cell death (% vs untreated cells) (RZL12 300 μM, Collagenase 0.3 μM, 24 h of incubation): 99.74%
Average RZL-012 and collagenase induced cell death (% vs untreated cells) (RZL12 300 μM, Collagenase 1 μM, 2 h of incubation): 99.1%
Average RZL-012 and collagenase induced cell death (% vs untreated cells) (RZL12 300 μM, Collagenase 1 μM, 24 h of incubation): 99.96%
Average RZL-012 and collagenase induced cell death (% vs untreated cells) (RZL12 300 μM, Collagenase 3 μM, 2 h of incubation): 96.6%
Average RZL-012 and collagenase induced cell death (% vs untreated cells) (RZL12 300 μM, Collagenase 3 μM, 24 h of incubation): 99.76%
Average RZL-012 and collagenase induced cell death (% vs untreated cells) (RZL12 300 μM, Collagenase 10 μM, 2 h of incubation): 89.2%
Average RZL-012 and collagenase induced cell death (% vs untreated cells) (RZL12 300 μM, Collagenase 10 μM, 24 h of incubation): 99.82%
Average RZL-012 and collagenase induced cell death (% vs untreated cells) (RZL12 300 μM, Collagenase 30 μM, 2 h of incubation): 89.5%
Average RZL-012 and collagenase induced cell death (% vs untreated cells) (RZL12 300 μM, Collagenase 30 μM, 24 h of incubation): 100.01%
concentrations at which the cytotoxic effect was observed (at all time points (2, 6, 24 h)): > 30 µM

From patent US20240041827A1, “COMPOSITIONS FOR THE TREATMENT OF FAT RELATED CONDITIONS AND DISORDERS” (priority 2020, published 2024)
